The values below come from ChEMBL document CHEMBL3352544, “Screening and identification of novel compounds with potential anti-proliferative effects on gallium-resistant lung cancer through an AXL kinase pathway” (Bioorg Med Chem Lett, 2014).

Active and inactive are the calls of the source. The calls are words filed in the database; no cut-off is given here.

Type in all cases: functional, cell-based
Assay [1] relates to A549. The assay can be described thus: Potentiation of gallium acetylacetonate-induced antiproliferative activity against gallium-resistant human A549 cells assessed as allium acetylacetonate IC50 at 0.25 uM after 48 hrs by MTT assay. As to conditions: A549, 48 h. On the technique in general: Tetrazolium dyes change colour on reduction, which living cells bring about.
Assay [2] concerns A549. The assay can be described thus: Potentiation of gallium acetylacetonate-induced antiproliferative activity against gallium-sensitive human A549 cells at 0.25 uM after 48 hrs by MTT assay.
For assay [3], the system named is A549. The assay can be described thus: Antiproliferative activity against gallium-sensitive human A549 cells after 48 hrs by MTT assay. As to conditions: A549, 48 h.
The test system of assay [4] is A549. The assay can be described thus: Antiproliferative activity against gallium-resistant human A549 cells after 48 hrs by MTT assay. The note with it: A549, 48 h.
Assay [5] deals with A549. The assay can be described thus: Potentiation of gallium acetylacetonate-induced antiproliferative activity against gallium-resistant human A549 cells at 0.25 uM after 48 hrs by MTT assay.
In assay [6] the test system is A549. The assay is described as follows: Reduction in AXL protein expression in gallium-resistant human A549 cells at 50 uM fter 48 hrs by immunofluorescence assay.
The test system of assay [7] is A549. The assay is described as follows: Effect on AXL protein expression in gallium-sensitive human A549 cells at 50 uM fter 48 hrs by immunofluorescence assay.

`Oc1c(CN2CCN(Cc3ccc4cccnc4c3O)CC2)ccc2cccnc12`: the figures for the IC50 in the assay on A549 [1], in the assay with A549 [3] and in the assay on A549 [4] were 102 µM, 3.6 µM and 2.8 µM, respectively. Moreover, the outcome in the assay with A549 [2] and in the assay with A549 [7] was inactive. The outcome in the assay with A549 [5] and in the assay with A549 [6] was Active.

As for `O=C(CSc1nnnn1-c1cccc2ccccc12)c1ccc(O)c(O)c1`, the IC50 with A549 [1] was determined as 199 µM; in the assay with A549 [3] it was 8.6 µM; in the assay on A549 [4], 17.4 µM. The result in the assay with A549 [2] and in the assay on A549 [7] was inactive. For the same compound, the outcome with A549 [5] and with A549 [6] was Active.

In general, IC50 refers to the concentration that gives 50% inhibition.
